Laboratory results published in patent US20250009694A1, “METHODS AND PHARMACEUTICAL COMPOSITIONS FOR REPAIRING INTESTINAL MUCOSAL” (INSTITUT NATIONAL DE LA SANTÉ ET DE LA RECHERCHE MÉDICALE, priority 2021, published 2025).

System: DSS-colitis in WT mice
Test: DSS-induced acute colitis in WT C57BL/6 mice after pre-treatment
Format: in vivo, mouse
Details: CEA alone, Pan alone or coadministration

SMILES	influence on DSS-colitis, single or combined administration
NCCS [CEA, 2-aminoethanethiol]	poor influence
CC(C)(CO)[C@@H](O)C(=O)NCCC(=O)O [Pan, 3-[(2R)-(2,4-Dihydroxy-3,3-dimethylbutanoyl)amino]propanoic acid]	delayed colitis development
